Assay results reported in the METLIN SMRT retention time set (Domingo-Almenara et al. 2019).

Assay: gradient 5% acetonitrile 3 min, to 50% in 2 min, to 85% in 15 min, held 3 min, 100 µL/min
Settings: column: Zorbax Extend-C18 2.1 x 50 mm; eluents: water / acetonitrile, 0.1% formic acid
Summary of the method: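 Pure standards were analyzed in mixtures of ~100 molecules using HPLC coupled to a quadrupole time-of-flight mass spectrometer, in both positive and negative ionization mode. Separation used a Zorbax Extend-C18 column (2.1 × 50 mm, 1.8 μm) at 100 μL/min, with water and acetonitrile each containing 0.1% formic acid. Dead and dwell volumes were 40 μL and 900 μL, and data were collected over 3 months. Retention time was read from computationally picked adduct peaks, each inspected manually.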

Compound	RP-LC retention time [s]
CCC(=O)O[C@]1(C(=O)CO)CC[C@H]2[C@@H]3CCC4=CC(=O)CC[C@]4(C)[C@H]3CC[C@@]21C	1060
Cc1cccc(C)c1Nc1c(-c2ccc(Cl)cc2)nc2ncccn12	919
CC(C)c1ccc(NC(=O)C2CCN(S(=O)(=O)c3cn(C(C)C)cn3)CC2)cc1	900
OCCOCCNCc1ccc(-c2ccc(F)cc2)o1	620
CCCn1c(-c2cccc(C(=O)NCc3ccc(C(F)(F)F)cc3)c2)nc2cccnc21	933
CC(C)CN(Cc1ccc(F)cc1)Cc1cc(=O)n2cc(Cl)ccc2n1	706
COc1cccc(NC(=O)Cn2c(=O)c(CCC(=O)NCC(C)C)nc3ccccc32)c1	798
Cn1cc(CC(=O)NCc2cc(F)cc(F)c2)c2cccnc21	702
CC(C)CNC(=O)c1cn(-c2ncccc2-c2nc(C(C)(C)C)no2)cn1	872
COc1ccc(S(=O)(=O)CC(=O)Nc2nnc(-c3cc(C)oc3C)o2)cc1	721
CCNC(=O)c1cc(-c2ccc(F)cc2)n[nH]1	695
CCn1cc(S(=O)(=O)Nc2ccc(C)cc2C)c2cccnc21	900
CCCn1ccc2oc(C)c(C(=O)NCc3cccc(Br)c3)c2c1=O	1130
Nc1ccc(-c2ccc3ccccc3n2)cc1	619
O=C(Nc1ccc(F)cc1F)C1CCN(S(=O)(=O)c2cc(C(=O)N3CCCC3)cs2)CC1	803
COc1ccc(NC(=O)c2c(O)c3cccnc3n(-c3ccc(OC)cc3)c2=O)cc1	800
CCC(=O)N1CCCCCCN(C)C(=O)[C@@H]2CCC[C@@H]21	726
CCCCC(=O)N(CCC)CCC	965
Cc1cc(-c2nnc(-c3ccco3)o2)c(C)n1CC(=O)Nc1ccc(F)cc1	858

Compound	RP-LC retention time [s]
COc1ccc2c(c1)C=C(C(=O)Nc1ccccc1F)C=CO2	1020
CCc1nc2cc(-c3noc(-c4ccc(OC)c(OC)c4)n3)ccc2o1	1080
Cc1cccc(-n2c(=O)c3c(cc(C)n3C)n(CC(=O)Nc3ccc(C)c(Cl)c3)c2=O)c1	960
Cc1ccc(-c2noc(-c3cccc(S(=O)(=O)Nc4ccccn4)c3)n2)cc1	935
Cn1c(C#N)ccc1-c1ccc2c(c1)C(C)(C)OC(=S)N2	989
CC(C)NC(=O)c1ccc2c(c1)CCN2C(=O)C(C)C	733
Brc1ccc2nc(-c3ccccc3)c(Nc3ccc4c(c3)OCO4)n2c1	748
COC(=O)c1c(C)[nH]c(C(=O)N2CCC(CC(=O)NCc3ccc(C)cc3)CC2)c1C	762
Cc1cc(F)ccc1NC(=O)c1cc(C2CC2)on1	936
CC(C)c1ccc(NC(=O)CN2CCN(C(=O)Nc3ccc(Br)cc3)CC2=O)cc1	885
Cc1[nH]c2ccccc2c1C(=O)C(=O)N1CC2CC(C1)c1cccc(=O)n1C2 (centres undefined)	612
Cc1cc(-c2nnc(C3CCC3)o2)c(C)n1CC(=O)NCc1cc(F)cc(F)c1	864
O=C(NCc1cnoc1-c1ccc(F)cc1)c1ccccc1F	866
CCCNC(=O)N1CCCCCC1CN1CCC(OC)CC1 (centres undefined)	604
O=C(NCc1ccc(F)cc1)Nc1ccc(-c2nc(-c3ccccc3)co2)cc1	1050
Cc1cc(C)cc(N2CCC(N)C2=O)c1 (centres undefined)	605
CCc1nc(-c2cc(S(=O)(=O)N3CCC(C(=O)NC4CCCCCC4)CC3)c(C)s2)no1	1070
Cc1ccc(-n2c(=O)c3c(cc(C)n3C)n(CC(=O)Nc3ccc(Br)cc3F)c2=O)cc1	944

Further lines, results first:

RP-LC retention time [s]	Compound
650	Cc1noc(C2CN(C(=O)Nc3ccccc3)CC23CCOCC3)n1 (centres undefined)
923	O=C(C1CCCC1)N1CC(c2nc(-c3ccccc3)no2)C2(CCOCC2)C1 (centres undefined)
616	Cn1cc(-c2cc3n(n2)CCC(=O)N3CCCC(=O)NCc2cccnc2)c2ccccc21
852	CCN(Cc1ccccc1)C(=O)C1CCN(S(=O)(=O)c2ccc3c(c2)NC(=O)CO3)CC1
646	Cc1cc(F)cc2c(=O)c3c([nH]c12)CCN(CC(=O)Nc1cccc(Cl)c1)C3
894	CCCn1c(-c2cccc(C(=O)NCc3cccc(Br)c3)c2)nc2cccnc21
817	CCOC(=O)c1ccc(NC(=O)NCc2ccccc2)cc1
851	Cn1cc(-c2nc(C(=O)NCc3cccs3)cs2)c2cccnc21
578	CCOc1cccc(CN2C[C@@H]3C(=O)N(CCOC)C(=O)[C@@H]3C2)c1
619	CCOC(=O)c1c(C)[nH]c(C(=O)N2CCC(CC(=O)N3CCN(c4ccccn4)CC3)CC2)c1C
580	Cn1cc(CN2CCC(C(=O)NCCCN3CCOCC3)CC2)c2cc(Cl)ccc21
740	Cc1cccc2nnc(N3CCC(C(=O)NCc4ccc(C(F)(F)F)cc4)CC3)n12
1070	CCN1C(=O)COc2ccc(-c3noc(-c4ccccc4F)n3)cc21
634	Cc1ccc(CN2CCC(CNC(=O)CSc3nc4ccccc4n(C)c3=O)C2)cc1 (centres undefined)
880	COc1cccc(CNC(=O)C2CCCN2S(=O)(=O)c2cc3c(cc2Cl)NC(=O)CO3)c1 (centres undefined)
872	COc1ccccc1/C=C/c1nn2c(-c3cccnc3)nnc2s1
1200	Cc1ccc(-c2nnc(-c3ccccc3Cl)o2)cc1S(=O)(=O)N1CCCCC1
894	COc1nc(-c2ccc3c(c2)OCO3)n(-c2ccc(NC(=O)CSc3ccccc3)cc2)n1
692	CSc1ccc(CNC(=O)c2cn3ccccc3n2)cc1
676	CCC1CCCCN1Cc1nc(Cn2ccn3nc(-c4ccccc4)cc3c2=O)no1 (centres undefined)
582	CC1CCN(CCCNC(=O)C2(O)c3ccccc3NC(=O)N2c2ccc(Cl)cc2)CC1 (centres undefined)
1010	Cc1ccc(CNC(=O)CCC2CCCN(S(=O)(=O)c3ccccc3C)C2)cc1 (centres undefined)
813	NS(=O)(=O)c1nn2cc(-c3ccccc3)nc2s1
754	COc1ccc(OC)c(NC(=O)C2CCN(C(=O)C3Sc4ccccc4NC3=O)CC2)c1 (centres undefined)
862	CCOc1ccccc1-n1nnc(C(=O)OC)c1C(=O)OC
631	CCc1ccc(CN2C[C@@H]3C(=O)N(CCOC)C(=O)[C@@H]3C2)cc1

RP-LC retention time [s]	Compound
793	COc1ccc(CNC(=O)NC2CCN(c3ccc(C)c(C)c3)C2=O)cc1 (centres undefined)
680	O=C(NCc1cccc(C(F)(F)F)c1)C1(CCO)CCN(Cc2ccccc2)C1 (centres undefined)
633	Cc1cc(N(C)C)n2nc(CN3CCN(c4ccccc4C)CC3)nc2n1
976	Cc1ccc(N(C)C(=O)CN2C(=O)CCCc3cc(S(=O)(=O)N4CCCCC4)ccc32)cc1
850	Nc1c(C(=O)NCc2ccc3c(c2)OCO3)nsc1C(=O)N1CCN(c2ncccn2)CC1
624	CCN(CC)C(=O)c1ccc2oc(CN3CCN(C(=O)NCC(C)C)CC3)nc2c1
595	Cn1c(=O)c2c(ncn2CC(=O)Nc2cccc(N3CCCS3(=O)=O)c2)n(C)c1=O
789	CC(NC(=O)C1CCN(c2cnn(Cc3ccccc3)c(=O)c2)CC1)c1cccs1 (centres undefined)
851	CCc1ccc(NC(=O)N2C[C@@H]3CN(S(=O)(=O)c4ccccc4)C[C@H](C2)O3)cc1
717	O=C(NCc1ccccc1)N1CCN(Cc2nc3cc(Cl)ccc3o2)CC1
947	COc1ccccc1OCC1c2ccsc2CCN1C(=O)CN(CC1CC1)C(=O)C(C)C (centres undefined)
942	CCc1nn2c(CNS(=O)(=O)c3ccc(F)cc3F)c(-c3ccccc3)nc2s1
1070	CC(CCc1ccccc1)NC(=O)C1CCN(S(C)(=O)=O)c2cc(Cl)ccc2O1 (centres undefined)
623	O=C(NCCn1cnc2cc(C(=O)N3CCCC3)ccc21)Nc1cccc(Br)c1
720	O=C(NCc1ccccc1)C1CCc2nc(N3CCCCC3)ncc2C1 (centres undefined)
691	O=C1CCN(C(=O)COc2ccc(Cl)cc2)c2ccccc2N1
834	COc1ccc(NC(=O)Cn2cnc3nc(N4CCC(C)CC4)ncc3c2=O)cc1Cl
779	Cc1c(Cl)cccc1NC(=O)CN1C(=O)NC2(CCCCC2)C1=O
643	CC1CC(=O)c2cnc(N3CCN(Cc4ccccc4)CC3)nc2C1 (centres undefined)
566	O=C(c1cc(N2C(=O)CCS2(=O)=O)ccc1Cl)N1CCN(c2ccccn2)CC1
828	CCN1C(=O)c2cccnc2Sc2cc(NC(=O)c3ccccc3Cl)ccc21
971	CCOC(=O)c1noc2ncnc(Nc3ccccc3OCC)c12
666	C=CCN1CCc2c(cc(O)c(O)c2Cl)C(c2ccccc2)C1 (centres undefined)
958	Cc1cccc(NC(=O)CN2C(=O)CCCc3cc(S(=O)(=O)N4CCCCC4)ccc32)c1
872	CN1C(=O)C2CCCCN2c2ccc(C(=O)NCCc3cccs3)cc21 (centres undefined)
851	Cc1ccccc1CNC1=NCCNC12CCN(S(=O)(=O)c1ccc3c(c1)CCCC3)CC2
